In brackets after ≈: the same amount, converted by molar mass.

Test systems include Escherichia coli BL21; Candida albicans; Staphylococcus aureus MR.
What all share (assay): ≥ marks a high value that may be exact or a test limit, other limits are often not marked, values filed in µg/mL are converted to µM
Experiment [1] deals with Streptococcus pyogenes M1T1 5448.
Experiment [2] concerns Pseudomonas aeruginosa PAO1.
Experiment [3] has as its system Staphylococcus aureus USA 300.
The subject of experiment [4] is Staphylococcus aureus ATCC 49476.
For experiment [5], the system named is Pseudomonas aeruginosa ATCC 27853.

For `CC[C@H](C)[C@H](NC(=O)[C@H](CCCN=C(N)N)NC(=O)[C@H](CCC(N)=O)NC(=O)[C@@H](NC(=O)CNC(=O)[C@@H](N)Cc1c[nH]c2ccccc12)[C@@H](C)O)C(=O)N[C@@H](CCCCN)C(=O)N[C@@H](C)C(=O)N[C@@H](Cc1ccc(O)cc1)C(=O)N[C@@H](CC(C)C)C(=O)N[C@@H](CCCN=C(N)N)C(=O)N[C@@H](CCCN=C(N)N)C(=O)N[C@@H](CCC(=O)O)C(=O)N[C@H](C(=O)N[C@@H](CCCN=C(N)N)C(=O)N[C@@H](CCCCN)C(=O)N[C@@H](CCCN=C(N)N)C(=O)NCC(=O)N[C@@H](CCCN=C(N)N)C(=O)N[C@@H](CCCCN)C(=O)N[C@@H](C)C(=O)N[C@H](C(=O)N[C@H](C(=O)N[C@@H](C)C(=O)N[C@@H](Cc1c[nH]c2ccccc12)C(=O)O)[C@@H](C)CC)C(C)C)[C@@H](C)CC` [WGTQRIKAYLRREIRKRGRKAVIAW], the MIC (in general, the smallest concentration in the dilution series that meets the test's criterion for growth inhibition) with Escherichia coli BL21 was found to be 2 µM (≈ 6.23 µg/mL); in experiment [1], 0.5 µM (≈ 1.56 µg/mL); in experiment [2], 8 µM (≈ 24.9 µg/mL).
`CC[C@H](C)[C@H](NC(=O)[C@H](CCCCN)NC(=O)[C@H](CCCCN)NC(=O)CNC(=O)[C@H](CCC(=O)O)NC(=O)[C@H](CCC(N)=O)NC(=O)[C@@H](NC(=O)[C@H](CCCCN)NC(=O)[C@H](CCCCN)NC(=O)[C@H](CCCCN)NC(=O)[C@H](CC(C)C)NC(=O)[C@H](CCCN=C(N)N)NC(=O)[C@H](CCC(N)=O)NC(=O)[C@H](Cc1ccccc1)NC(=O)[C@@H](NC(=O)[C@H](CCCCN)NC(=O)[C@H](CCC(=O)O)NC(=O)[C@@H](NC(=O)CNC(=O)[C@H](C)N)[C@@H](C)O)[C@@H](C)CC)[C@@H](C)CC)C(=O)N[C@@H](C)C(=O)N[C@@H](CCCCN)C(=O)N[C@@H](CCCN=C(N)N)C(=O)N[C@@H](C)C(=O)N[C@@H](Cc1c[nH]c2ccccc12)C(=O)O` [AGTEKIFQRLKKKIQEGKKIAKRAW]: the MIC in the experiment on Escherichia coli BL21 was found to be 1 µM (≈ 2.96 µg/mL); in experiment [3], 8 µM (≈ 23.7 µg/mL); in experiment [1] it was 0.25 µM (≈ 0.739 µg/mL); in experiment [2], 64 µM (≈ 189 µg/mL).
With `CC[C@H](C)[C@H](NC(=O)[C@H](CC(C)C)NC(=O)[C@H](CCCN=C(N)N)NC(=O)[C@H](Cc1cnc[nH]1)NC(=O)[C@H](CCCN=C(N)N)NC(=O)[C@H](C)NC(=O)[C@H](CCCCN)NC(=O)CNC(=O)[C@H](C)NC(=O)[C@H](CO)NC(=O)[C@H](Cc1ccccc1)NC(=O)[C@H](CC(C)C)NC(=O)CNC(=O)CNC(=O)[C@@H](NC(=O)[C@@H](NC(=O)[C@H](Cc1cnc[nH]1)NC(=O)[C@H](Cc1cnc[nH]1)NC(=O)[C@@H](NC(=O)[C@@H](N)Cc1ccccc1)[C@@H](C)CC)[C@@H](C)CC)[C@@H](C)CC)C(=O)N[C@@H](CCCN=C(N)N)C(=O)N[C@@H](CCCN=C(N)N)C(=O)N[C@@H](CCCN=C(N)N)C(=O)N[C@@H](CCCN=C(N)N)C(=O)N[C@@H](CCCN=C(N)N)C(=O)O` [FIHHIIGGLFSAGKARHRLIRRRRR], the MIC was 42.3 µM (≈ 128 µg/mL) in the experiment on Candida albicans, ≥ 169 µM in the experiment with Staphylococcus aureus MR, ≥ 169 µM in experiment [4] and > 169 µM in experiment [5].
As to `CC[C@H](C)[C@H](NC(=O)[C@H](CC(C)C)NC(=O)[C@H](CCCN=C(N)N)NC(=O)[C@H](Cc1cnc[nH]1)NC(=O)[C@H](C)NC(=O)[C@H](C)NC(=O)[C@H](CCCCN)NC(=O)CNC(=O)[C@H](C)NC(=O)[C@H](CO)NC(=O)[C@H](Cc1ccccc1)NC(=O)[C@H](CC(C)C)NC(=O)CNC(=O)CNC(=O)[C@@H](NC(=O)[C@@H](NC(=O)[C@H](Cc1cnc[nH]1)NC(=O)[C@H](Cc1cnc[nH]1)NC(=O)[C@@H](NC(=O)[C@@H](N)Cc1ccccc1)[C@@H](C)CC)[C@@H](C)CC)[C@@H](C)CC)C(=O)N[C@@H](CCCN=C(N)N)C(=O)N[C@@H](CCCN=C(N)N)C(=O)N[C@@H](CCCN=C(N)N)C(=O)N[C@@H](CCCN=C(N)N)C(=O)N[C@@H](CCCN=C(N)N)C(=O)O` [FIHHIIGGLFSAGKAAHRLIRRRRR], the MIC in the experiment with Candida albicans was found to be 43.5 µM (≈ 128 µg/mL); against Staphylococcus aureus MR it was 21.8 µM (≈ 64 µg/mL); in experiment [4], 21.8 µM (≈ 64 µg/mL); in experiment [5] it was 87.1 µM (≈ 256 µg/mL).
For `CC[C@H](C)[C@H](NC(=O)[C@H](Cc1cnc[nH]1)NC(=O)[C@H](CCCCN)NC(=O)CNC(=O)[C@@H](NC(=O)[C@H](CO)NC(=O)[C@H](Cc1ccccc1)NC(=O)[C@H](CC(C)C)NC(=O)CNC(=O)CNC(=O)[C@@H](NC(=O)[C@@H](NC(=O)[C@H](Cc1cnc[nH]1)NC(=O)[C@H](Cc1cnc[nH]1)NC(=O)[C@@H](NC(=O)[C@@H](N)Cc1ccccc1)[C@@H](C)CC)[C@@H](C)CC)[C@@H](C)CC)C(C)C)C(=O)N[C@@H](Cc1cnc[nH]1)C(=O)N[C@@H](CCCN=C(N)N)C(=O)N[C@@H](CC(C)C)C(=O)N[C@H](C(=O)N[C@@H](CCCN=C(N)N)C(=O)N[C@@H](CCCN=C(N)N)C(=O)N[C@@H](CCCN=C(N)N)C(=O)N[C@@H](CCCN=C(N)N)C(=O)N[C@@H](CCCN=C(N)N)C(=O)O)[C@@H](C)CC` [FIHHIIGGLFSVGKHIHRLIRRRRR], the MIC was 41.6 µM (≈ 128 µg/mL) in the experiment with Candida albicans, 10.4 µM (≈ 32 µg/mL) in the experiment with Staphylococcus aureus MR, 5.2 µM (≈ 16 µg/mL) in experiment [4] and 41.6 µM (≈ 128 µg/mL) in experiment [5].
For `CC[C@H](C)[C@H](NC(=O)[C@H](CCCN=C(N)N)NC(=O)[C@H](CCC(N)=O)NC(=O)[C@H](Cc1c[nH]c2ccccc12)NC(=O)CNC(=O)[C@H](C)N)C(=O)N[C@@H](CCCCN)C(=O)N[C@@H](C)C(=O)N[C@@H](Cc1ccc(O)cc1)C(=O)N[C@@H](CC(C)C)C(=O)N[C@@H](CCCN=C(N)N)C(=O)N[C@@H](CCCN=C(N)N)C(=O)N[C@@H](CCC(=O)O)C(=O)N[C@H](C(=O)N[C@@H](CCCN=C(N)N)C(=O)N[C@@H](CCCCN)C(=O)N[C@@H](CCCN=C(N)N)C(=O)NCC(=O)N[C@@H](CCCN=C(N)N)C(=O)N[C@@H](CCCCN)C(=O)N[C@@H](C)C(=O)N[C@H](C(=O)N[C@H](C(=O)N[C@@H](C)C(=O)N[C@@H](Cc1c[nH]c2ccccc12)C(=O)O)[C@@H](C)CC)C(C)C)[C@@H](C)CC` [AGWQRIKAYLRREIRKRGRKAVIAW], the MIC against Escherichia coli BL21 is 1 µM (≈ 3.08 µg/mL); in experiment [1], 2 µM (≈ 6.17 µg/mL); in experiment [2], 2 µM (≈ 6.17 µg/mL).
`CC[C@H](C)[C@H](NC(=O)[C@H](CCCN=C(N)N)NC(=O)[C@H](CCC(N)=O)NC(=O)[C@@H](NC(=O)[C@H](Cc1c[nH]c2ccccc12)NC(=O)[C@H](C)N)[C@@H](C)O)C(=O)N[C@@H](CCCCN)C(=O)N[C@@H](C)C(=O)N[C@@H](Cc1ccc(O)cc1)C(=O)N[C@@H](CC(C)C)C(=O)N[C@@H](CCCN=C(N)N)C(=O)N[C@@H](CCCN=C(N)N)C(=O)N[C@@H](CCC(=O)O)C(=O)N[C@H](C(=O)N[C@@H](CCCN=C(N)N)C(=O)N[C@@H](CCCCN)C(=O)N[C@@H](CCCN=C(N)N)C(=O)NCC(=O)N[C@@H](CCCN=C(N)N)C(=O)N[C@@H](CCCCN)C(=O)N[C@@H](C)C(=O)N[C@H](C(=O)N[C@H](C(=O)N[C@@H](C)C(=O)N[C@@H](Cc1c[nH]c2ccccc12)C(=O)O)[C@@H](C)CC)C(C)C)[C@@H](C)CC` [AWTQRIKAYLRREIRKRGRKAVIAW]: the MIC in the experiment with Escherichia coli BL21 was determined as 2 µM (≈ 6.25 µg/mL); in experiment [1], 2 µM (≈ 6.25 µg/mL); in experiment [2], 8 µM (≈ 25 µg/mL).
For the compound `CC[C@H](C)[C@H](N)C(=O)N[C@H](C(=O)NCC(=O)NCC(=O)N[C@@H](CC(C)C)C(=O)N[C@@H](Cc1ccccc1)C(=O)N[C@@H](CO)C(=O)N[C@@H](C)C(=O)NCC(=O)N[C@@H](CCCCN)C(=O)N[C@@H](C)C(=O)N[C@H](C(=O)N[C@@H](Cc1cnc[nH]1)C(=O)N[C@@H](CCCN=C(N)N)C(=O)N[C@@H](CC(C)C)C(=O)N[C@H](C(=O)N[C@@H](CCCN=C(N)N)C(=O)N[C@@H](CCCN=C(N)N)C(=O)N[C@@H](CCCN=C(N)N)C(=O)N[C@@H](CCCN=C(N)N)C(=O)N[C@@H](CCCN=C(N)N)C(=O)O)[C@@H](C)CC)[C@@H](C)CC)[C@@H](C)CC` [IIGGLFSAGKAIHRLIRRRRR], the MIC in the experiment with Candida albicans was 26.2 µM (≈ 64 µg/mL); in the experiment on Staphylococcus aureus MR it was 26.2 µM (≈ 64 µg/mL); in experiment [4], ≥ 52.3 µM; in experiment [5], 105 µM (≈ 256 µg/mL).
With `CC[C@H](C)[C@H](NC(=O)[C@H](CCCN=C(N)N)NC(=O)[C@H](C)NC(=O)[C@H](CCCCN)NC(=O)[C@H](CCCN=C(N)N)NC(=O)CNC(=O)[C@@H](NC(=O)[C@H](CCCCN)NC(=O)[C@H](CCCN=C(N)N)NC(=O)[C@@H](NC(=O)[C@H](CCC(=O)O)NC(=O)[C@H](CCCN=C(N)N)NC(=O)[C@H](CCCN=C(N)N)NC(=O)[C@H](CC(C)C)NC(=O)[C@H](Cc1ccc(O)cc1)NC(=O)[C@H](C)NC(=O)[C@H](CCCCN)NC(=O)[C@@H](NC(=O)[C@H](Cc1c[nH]c2ccccc12)NC(=O)[C@H](CCC(N)=O)NC(=O)[C@H](CCCN=C(N)N)NC(=O)CNC(=O)[C@H](C)N)[C@@H](C)CC)[C@@H](C)CC)C(C)C)C(=O)N[C@@H](C)C(=O)N[C@@H](Cc1c[nH]c2ccccc12)C(=O)O` [AGRQWIKAYLRREIRKVGRKARIAW], the MIC against Escherichia coli BL21 was 1 µM (≈ 3.08 µg/mL); in experiment [1] it was 2 µM (≈ 6.17 µg/mL); in experiment [2], 16 µM (≈ 49.3 µg/mL).
For `CC[C@H](C)[C@H](NC(=O)[C@H](C)NC(=O)[C@H](CCCCN)NC(=O)CNC(=O)[C@H](C)NC(=O)[C@H](CO)NC(=O)[C@H](Cc1ccccc1)NC(=O)[C@H](CC(C)C)NC(=O)CNC(=O)CNC(=O)[C@H](C)NC(=O)[C@H](C)NC(=O)[C@H](Cc1cnc[nH]1)NC(=O)[C@H](Cc1cnc[nH]1)NC(=O)[C@@H](NC(=O)[C@@H](N)Cc1ccccc1)[C@@H](C)CC)C(=O)N[C@@H](Cc1cnc[nH]1)C(=O)N[C@@H](CCCN=C(N)N)C(=O)N[C@@H](CC(C)C)C(=O)N[C@H](C(=O)N[C@@H](CCCN=C(N)N)C(=O)N[C@@H](CCCN=C(N)N)C(=O)N[C@@H](CCCN=C(N)N)C(=O)N[C@@H](CCCN=C(N)N)C(=O)N[C@@H](CCCN=C(N)N)C(=O)O)[C@@H](C)CC` [FIHHAAGGLFSAGKAIHRLIRRRRR], the MIC with Candida albicans was 44.2 µM (≈ 128 µg/mL); against Staphylococcus aureus MR, ≥ 177 µM; in experiment [4], ≥ 177 µM; in experiment [5] it was 177 µM (≈ 512 µg/mL).

The values are drawn from DBAASP.
